A short description of data set [1]: Redox potentials of iron complexes (no method given). Type of data set: physicochemical.
Data set [2] in a line: Exchange rate constants (omega plot). As to the method: Exchange rate constants were calculated following a previously reported procedure. Measurements of on-resonance (Mz) and off-resonance (Mo) were acquired at different presaturation pulse powers between 350-1000 Hz (8-24 μT) applied for 4 seconds at 37° C. The exchange rate constant (kex) is calculated from the x-intercept from the plot of Mz/(Mo−Mz) against 1/ω1^2 (ω1 in rad/s). The rate constant, kex, is converted into units of s^−1. Samples contained 10 mM Co^II complex, 20 mM HEPES pH 7.4, and 100 mM NaCl.
The exchange rate constants were calculated by using a previously reported procedure. The magnetization of the on-resonance (Mz) and off-resonance (Mo) were acquired at different pre-saturation pulse powers between 350-1090 Hz applied for 4 seconds. To calculate the exchange rate constant (kb), the x-intercept (−1/kb^2) was obtained from the plot of Mz/(Mo−Mz) against 1/ω1^2 (ω1 in rad/s). Samples contained 16 mM [Co(TPT)]Cl2, 200 mM NaCl, and 40 mM MES or HEPES at pH 6.4-7.5. Measurements were carried out at 37° C.

Data set [3] is described as follows: Kinetics of Co(II) oxidation and Co(III) reduction by UV-vis. The format is physicochemical. The text has this: Materials and methods. Instrumentation. Varian Inova 400 MHz and Inova 500 MHz NMR spectrometers were used to collect ^1H NMR spectra. ^13C NMR spectra were acquired using a Varian Mercury 300 MHz NMR spectrometer operating at 75 MHz. The measurements of magnetic susceptibility and CEST data were acquired on Varian Inova 500 MHz NMR spectrometer. Temperature of samples during ^1H NMR and CEST experiments was controlled with FTS Systems TC-84 Kinetics Air Jet Temperature Controller. A Thermo Scientific Orion 9826BN NMR micro pH electrode connected to a SympHony SB20 pH meter and the Orion 8115BNUWP Ross-ultra semi micro pH electrode connected to a Titrino 702 pH meter were used for pH measurements. ThermoFinnigan LCQ Advantage IonTrap LC/MS equipped with a Surveyor HPLC system was used to collect mass spectral data. Absorbance spectra of [Co(TPT)]^2+ and [Co(TPT)]^3+, together with the kinetic experiments for the reduction of Co(III) with L-ascorbic acid or sodium dithionite, and for the oxidation of Co(II) with oxygen or sodium peroxydisulfate were measured with a Beckman-Coulter DU 800 UV-vis Spectrophotometer equipped with a Peltier Temperature Controller. Kinetic experiments for the oxidation of Co(II) complex were performed after equilibration of the solutions with a mixture containing 5%, 10%, and 20% of oxygen in nitrogen followed by addition of [Co(TPT)]^2+ in the minimal volume of solvent. All experiments for the reduction of […] were performed under an inert atmosphere of argon. […]

The nature of the next data set: Cyclic voltammetry. The format is physicochemical. The settings on record: versus NHE, in water, 1 M KCl. As to the method:
Cyclic voltammograms were obtained using a Princeton Applied Research Model 263A Potentiostat/Galvanostat and PowerSuite software program. CHI 104 Glassy Carbon Disk working electrode from CH Instruments, Inc. (Austin, Tex.) was used. Cyclic Voltammetry. […] (FIG. 6). The external ferrocyanide standard with Eo (Fe(III)/Fe(II))=303±10 mV vs. NHE contained 1.0 mM K4Fe(CN)6 and 1.00 M KCl under argon. The redox potential of the complex calculated based on a NHE reference using eq. 6: E^o(vs. NHE)=E^o(vs. Ag/AgCl)+167 mV, eq. 6 Determination of Magnetic Moment.

Data set [4] in a line: Effective magnetic moment in solution from magnetic susceptibility (NMR). The format is physicochemical. The settings on record: aqueous solution. As to the method: The effective magnetic moment (μeff) was calculated by using a previously known method. 5 mM Co^II complex and 5% t-butanol by volume was placed in a NMR insert while the outer NMR tube contained 5% by volume t-butanol in D2O. The μeff was calculated at 298 K (T) and monitored over a period of 72 hours using the following approach.
The mass susceptibility of solute (χg) was calculated by obtaining the observed frequency shift of the reference (Δf) in Hz, the spectrometer frequency (f) in Hz, the mass of the substance per cm^3 of solution (m), and the mass susceptibility of solvent D2O (χ0=−0.6466×10^−6 cm^3/g). The last term is neglected due to the minimal contribution to mass susceptibility of solute. The molar susceptibility (χm) is the product of χg multiplied by the molecular weight of the Co^II complex.
The effective magnetic moment was calculated by using a previously known method. In a typical experiment, oxygen-free solution of 8-20 mM [Co(TPT)]^2+ in deuterium oxide, pD 7.0, containing 5% tert-butanol by volume was placed in an NMR tube, while a reference solution of 5% tert-butanol (v/v) in deuterium oxide, pD 7.0, was placed into NMR tube insert. All solutions of [Co(TPT)]^2+ were purged with argon and kept in the absence of air. The effective magnetic moment (μeff) was calculated at 298 K (T) using the following equations 7-8. In these equations the mass susceptibility of solute (χg) was calculated by obtaining the observed frequency shift of the reference (Δf) in Hz, the spectrometer frequency (f) in Hz, the mass of the substance per cm^3 of the solution (m), and the mass susceptibility of deuterium oxide (χ0=−0.6466×10^−6 cm^3/g). The last term in eq. SI is neglected due to the minimal contribution to mass susceptibility of solute. The molar susceptibility (χm) is the product of χg multiplied by the molecular weight of the [Co(TPT)]Cl2 complex. Reported value of the effective magnetic moment was obtained by averaging of three independent experiments. χg=(−3Δf)/(4πfm)+χ0+[χ0(d0−ds)]/m eq. 7 μeff=2.84(χmT)^1/2 eq. 8

Data set [5] is described as follows: Oxidation in air / reduction with dithionite followed by 1H NMR. Type of data set: physicochemical.

Several values for one entry are separate records, joined by “and”; a condition that tells them apart may be missing. Equal values may be shown once. Entries after “also recorded” stand apart in the source; their conditions may differ.

With `O=C([O-])CN1CCN(CC(=O)[O-])CCN(CC(=O)[O-])CC1.[Fe+3]` [Fe(NOTA)], the redox potential in data set [1] is 195 mV.
In the case of `[Co+2].c1cc(CN2CCN(Cc3cc[nH]n3)CCN(Cc3cc[nH]n3)CC2)n[nH]1` [[Co(TPT)]^2+], the “rate constant for proton exchange” value in data set [2] (pH 6.4, 37° C.) is 6,200 s^−1; in data set [2] (pH 6.9, 37° C.), 9,200 s^−1; in data set [2] (pH 7.5, 37° C.), 12,400 s^−1. The “second-order rate constant for reduction by dithionite” value in data set [3] (200 mM NaCl, 40 mM HEPES, pH 7.0, 37° C.) was determined as 0.24 M⁻¹ s⁻¹. For the same molecule, the “second-order rate constant for oxidation by oxygen” value in data set [3] (200 mM NaCl, 40.0 mM HEPES, pH 7.1, 25° C.) came to 0.43 M⁻¹ s⁻¹. The “rate constant for oxidation of the Co(II) complex” value was 5e-06 s⁻¹ in data set [3] (ambient pressures of oxygen) and 2×10^−6 in data set [3] (partial pressures of oxygen of 5%, in 1/s). In addition, the “rate constant for reduction of Co(III) complex” value in data set [3] (excess dithionate) came out at 4e-05 s⁻¹. The “rate constant for oxidation, extrapolated” value in data set [3] (hypoxic conditions, 10 mm Hg, 17 μM O2) was 7.3e-06 s⁻¹; in data set [3] (oxygen 100 mm Hg (0.17 mM O2), arterial blood), 7.3e-05 s⁻¹. For the same molecule, the reduction potential in the data set “Cyclic voltammetry” is −107 mV and −107±11 mV. In data set [4], this molecule returned an effective magnetic moment of 5.7±0.2 BM. The “stability towards oxidation in air (in words)” value in data set [5] is listed as “readily oxidize; also recorded: oxidizes in air to the Co(III) form”.
On to `[Fe+2].c1cc(CN2CCN(Cc3cc[nH]n3)CCN(Cc3cc[nH]n3)CC2)n[nH]1` [[Fe(TPT)]^2+], for which, in data set [5], the “stability towards oxidation in air (in words)” value is recorded as “readily oxidize”.

Values taken from patent US10960088B2, “Macrocycles, cobalt and iron complexes of same, and methods of making and using same” (The Research Foundation for The State University of New York, priority 2013, dated 2021).
